Where two headings read alike, the source gives them in different places.
What was measured:
[1] = biological target: T1, menin/MLL (terbium chelate-labeled menin, FITC-MBM1 peptide) (Homo sapiens, UniProt O00255, T541A); experiment: Menin/MLL homogenous time-resolved fluorescence (HTRF) assay; type: binding; settings: 30 min incubation
T1 construct: Menin (a.a 1-610-6xhis tag)
T1 sequence (O00255 with tags, fused parts or gaps T541A): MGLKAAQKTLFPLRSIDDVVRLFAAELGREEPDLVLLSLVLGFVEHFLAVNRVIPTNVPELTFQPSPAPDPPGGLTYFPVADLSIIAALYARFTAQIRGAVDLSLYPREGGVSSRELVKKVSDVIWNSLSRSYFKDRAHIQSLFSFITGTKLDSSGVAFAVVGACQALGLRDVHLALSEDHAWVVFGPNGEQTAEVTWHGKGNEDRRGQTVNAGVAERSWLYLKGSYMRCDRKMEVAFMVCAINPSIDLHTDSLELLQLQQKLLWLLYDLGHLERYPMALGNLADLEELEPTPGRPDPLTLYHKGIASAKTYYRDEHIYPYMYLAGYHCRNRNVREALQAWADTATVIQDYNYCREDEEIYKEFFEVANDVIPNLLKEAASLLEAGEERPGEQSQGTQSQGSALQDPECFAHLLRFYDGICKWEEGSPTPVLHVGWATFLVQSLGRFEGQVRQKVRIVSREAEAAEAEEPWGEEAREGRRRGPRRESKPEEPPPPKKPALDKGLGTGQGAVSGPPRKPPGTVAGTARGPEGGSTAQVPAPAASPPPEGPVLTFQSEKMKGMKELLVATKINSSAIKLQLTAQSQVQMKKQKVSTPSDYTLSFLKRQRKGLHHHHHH
Outline: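 Tb-cryptate menin (1-610, 6xHis) 200 pM + cmpd, 30 min RT; + FITC-MBM1 75 nM, 15 min RT. 40 mM Tris pH 7.5, 50 mM NaCl, 1 mM DTT, 0.05% Pluronic F-127, 0.5% DMSO. HTRF 520/490; 11-pt 4-fold from 10 μM; IC50 fit.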

MOLM14 cells = experiment: Proliferation assay, spheroid-like growth, MOLM14 (MLL-AF9 rearranged); type: cell-based, human; settings: 8 days, confluence as measure of spheroid size, read-out: spheroid assay_OneTime MOLM14 IC50
Outline: (§1)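 200 MOLM14 or 300 KO-52 cells/well, ultra-low attachment, compound dilutions, DMSO 0.3%; 8 d, 37 °C, 5% CO2. Read: live-cell imaging confluence (spheroid size) day 8. Absolute IC50, min 0%/max 100% fixed, variable slope.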

KO-52 cells = experiment: Proliferation assay, spheroid-like growth, KO-52 (MLL wildtype control cell line); type: cell-based, human; settings: KO-52 control cells, 8 days, confluence as measure of spheroid size, read-out: spheroid assay_OneTime KO-52 IC50
Outline: as §1

CC(C)C([C@H]1C[C@@H](N(C)C)C1)N1CC2(CCN(c3ncnnc3Oc3ccc(F)cc3-c3cncnc3C3CC3)C2)C1 (stereo partly drawn) [Compound 136]
IC50 [1]: 0.1 nM | IC50 (MOLM14 cells; Homo sapiens, MOLM-14, 192 h): 8 nM | IC50 (KO-52 cells; Homo sapiens, 192 h): 7070 nM

CC(=O)N1CC2(C1)CN([C@H]1C[C@@H]([C@H](C(C)C)N3CC4(CCN(c5ncnnc5Oc5ccc(F)cc5-c5ncc(C)cc5C5CC5)C4)C3)C1)C2 (single isomer, unassigned) [Compound 373]
IC50 [1]: 0.77 nM | IC50 (MOLM14 cells; Homo sapiens, MOLM-14, 192 h): 7.6 nM | IC50 (KO-52 cells; Homo sapiens, 192 h): 5410 nM

C[C@@H]([C@H]1C[C@@H](NC(=O)OC(C)(C)C)C1)N1CC2(CCN(c3ncnnc3Oc3ccc(F)cc3-c3cncnc3C3CC3)C2)C1 [Compound 512b]
IC50 [1]: 0.589 nM | IC50 (MOLM14 cells): > 940 nM | IC50 (KO-52 cells): 5810 nM

CC(=O)N1CCN([C@H]2C[C@@H]([C@@H](C(C)C)N3CC4(CCN(c5ncnnc5Oc5ccc(F)cc5-c5cnncc5C5CC5)C4)C3)C2)CC1 (single isomer, unassigned) [Compound 80]
IC50 [1]: 43.2 nM | IC50 (MOLM14 cells; Homo sapiens, MOLM-14, 192 h): > 940 nM | IC50 (KO-52 cells; Homo sapiens, 192 h): > 15000 nM

CC(C)[C@H]([C@H]1C[C@@H](NC(=O)CC2COC2)C1)N1CC2(CCN(c3ncnnc3Oc3ccc(F)cc3-c3cncnc3C3CC3)C2)C1 (single isomer, unassigned) [Compound 296]
IC50 [1]: 0.2 nM | IC50 (MOLM14 cells; Homo sapiens, MOLM-14, 192 h): 10 nM | IC50 (KO-52 cells; Homo sapiens, 192 h): > 15000 nM

CC(C)[C@@H]([C@H]1C[C@H](N2C[C@H]3COC[C@H]3C2)C1)N1CC2(CCN(c3ncnnc3Oc3ccc(F)cc3-c3nnccc3C3CC3)C2)C1 (single isomer, unassigned) [Compound 259]
IC50 [1]: 0.4 nM | IC50 (MOLM14 cells; Homo sapiens, MOLM-14, 192 h): 94 nM | IC50 (KO-52 cells; Homo sapiens, 192 h): 4760 nM

CC(C)C([C@H]1C[C@@H](N2CC(O)C2)C1)N1CC2(CCN(c3ncnnc3Oc3ccc(F)cc3-c3cncnc3C3CC3)C2)C1 (stereo partly drawn) [Compound 125]
IC50 [1]: 0.1 nM | IC50 (MOLM14 cells; Homo sapiens, MOLM-14, 192 h): 12 nM | IC50 (KO-52 cells; Homo sapiens, 192 h): 5300 nM

CC(=O)N1CC[C@@]12CCN([C@H]1C[C@@H]([C@@H](C(C)C)N3CC4(CCN(c5ncnnc5Oc5ccc(F)cc5-c5cncnc5C5CC5)C4)C3)C1)C2 (single isomer, unassigned) [Compound 59]
IC50 [1]: 0.1 nM | IC50 (MOLM14 cells; Homo sapiens, MOLM-14, 192 h): 24 nM | IC50 (KO-52 cells; Homo sapiens, 192 h): 5010 nM

CC(C)[C@H]([C@H]1C[C@@H](NC(=O)C2CC2)C1)N1CC2(CCN(c3ncnnc3Oc3ccc(F)cc3-c3cnncc3C3CC3)C2)C1 (single isomer, unassigned) [Compound 185]
IC50 [1]: 0.1 nM | IC50 (MOLM14 cells; Homo sapiens, MOLM-14, 192 h): 6 nM | IC50 (KO-52 cells; Homo sapiens, 192 h): 6040 nM

CC(C)[C@H](C1CCN(C[C@H]2C[C@H](O)C2)CC1)N1CC2(CCN(c3ncnnc3Oc3ccc(F)cc3-c3cncnc3C3CC3)C2)C1 (single isomer, unassigned) [Compound 358]
IC50 [1]: 0.1 nM | IC50 (MOLM14 cells; Homo sapiens, MOLM-14, 192 h): 23 nM | IC50 (KO-52 cells; Homo sapiens, 192 h): 2210 nM

CC(=O)N[C@H]1C[C@@H](C(C(C)C)N2CC3(CCN(c4ncnnc4Oc4ccc(F)cc4-c4nccnc4C4CC4)C3)C2)C1 (stereo partly drawn) [Compound 176]
IC50 [1]: 0.5 nM | IC50 (MOLM14 cells; Homo sapiens, MOLM-14, 192 h): 80 nM | IC50 (KO-52 cells; Homo sapiens, 192 h): 10400 nM

CC(C)C([C@H]1C[C@@H](N2CCOCC2)C1)N1CC2(CCN(c3ncnnc3Oc3ccc(F)cc3-c3cncnc3C3CC3)C2)C1 (stereo partly drawn) [Compound 120]
IC50 [1]: 0.3 nM | IC50 (MOLM14 cells; Homo sapiens, MOLM-14, 192 h): 73 nM | IC50 (KO-52 cells; Homo sapiens, 192 h): > 15000 nM

CC(=O)N1CC2(C1)CN([C@H]1C[C@@H]([C@H](C(C)C)N3CC4(CCN(c5ncnnc5Oc5ccc(F)cc5-c5cnc(C)cc5C5CC5)C4)C3)C1)C2 (single isomer, unassigned) [Compound 371]
IC50 [1]: 0.15 nM | IC50 (MOLM14 cells; Homo sapiens, MOLM-14, 192 h): 3 nM | IC50 (KO-52 cells; Homo sapiens, 192 h): 10100 nM

CC(C)[C@H]([C@H]1C[C@@H](N2C[C@H]3C[C@@H]2CO3)C1)N1CC2(CCN(c3ncnnc3Oc3ccc(F)cc3-c3cncnc3C3CC3)C2)C1 (single isomer, unassigned) [Compound 234]
IC50 [1]: 0.1 nM | IC50 (MOLM14 cells; Homo sapiens, MOLM-14, 192 h): 9 nM | IC50 (KO-52 cells; Homo sapiens, 192 h): 6280 nM

CC(C)[C@@H]([C@H]1C[C@@H](N2CC3(CCO3)C2)C1)N1CC2(CCN(c3ncnnc3Oc3ccc(F)cc3-c3cnncc3C3CC3)C2)C1 (single isomer, unassigned) [Compound 102]
IC50 [1]: 0.1 nM | IC50 (MOLM14 cells; Homo sapiens, MOLM-14, 192 h): 12 nM | IC50 (KO-52 cells; Homo sapiens, 192 h): 8470 nM

CC(C)[C@H]([C@H]1C[C@@H](NC(=O)C2CC2)C1)N1CC2(CCN(c3ncnnc3Oc3ccc(F)cc3-c3n[nH]c(=O)cc3C3CC3)C2)C1 (single isomer, unassigned) [Compound 309]
IC50 [1]: 0.2 nM | IC50 (MOLM14 cells; Homo sapiens, MOLM-14, 192 h): 22 nM | IC50 (KO-52 cells; Homo sapiens, 192 h): 7390 nM

CC(=O)N[C@H]1C[C@@H](C(C(C)C)N2CC3(CCN(c4ncnnc4Oc4ccc(F)cc4-c4cccc(=O)n4C4CC4)C3)C2)C1 (stereo partly drawn) [Compound 188]
IC50 [1]: 0.2 nM | IC50 (MOLM14 cells; Homo sapiens, MOLM-14, 192 h): 520 nM | IC50 (KO-52 cells; Homo sapiens, 192 h): > 15000 nM

CC(C)C(C1CC2(CCN2CC2COC2)C1)N1CC2(CCN(c3ncnnc3Oc3ccc(F)cc3-c3cncnc3C3CC3)C2)C1 (stereo not drawn) [Compound 156]
IC50 [1]: 0.8 nM | IC50 (MOLM14 cells; Homo sapiens, MOLM-14, 192 h): 100 nM | IC50 (KO-52 cells; Homo sapiens, 192 h): 7960 nM

CC(C)[C@H](C1CC2(CCN2CC2COC2)C1)N1CC2(CCN(c3ncnnc3Oc3ccc(F)cc3-c3cncnc3C3CC3)C2)C1 (single isomer, unassigned) [Compound 155]
IC50 [1]: 2.3 nM | IC50 (MOLM14 cells; Homo sapiens, MOLM-14, 192 h): 570 nM | IC50 (KO-52 cells; Homo sapiens, 192 h): > 15000 nM

CCC(=O)N[C@H]1C[C@@H]([C@@H](C(C)C)N2CC3(CCN(c4ncnnc4Oc4ccc(F)cc4-c4cncnc4C4CC4)C3)C2)C1 (single isomer, unassigned) [Compound 356]
IC50 [1]: 0.3 nM | IC50 (MOLM14 cells; Homo sapiens, MOLM-14, 192 h): 11 nM | IC50 (KO-52 cells; Homo sapiens, 192 h): > 15000 nM

CC(C)[C@H]([C@H]1C[C@@H](N2C[C@@H](O)C3(CCC3)C2)C1)N1CC2(CCN(c3ncnnc3Oc3ccc(F)cc3-c3cncnc3C3CC3)C2)C1 (single isomer, unassigned) [Compound 215]
IC50 [1]: 0.1 nM | IC50 (MOLM14 cells; Homo sapiens, MOLM-14, 192 h): 2 nM | IC50 (KO-52 cells; Homo sapiens, 192 h): 7940 nM

CC(C)C([C@H]1C[C@H](N2C[C@H]3COC[C@H]3C2)C1)N1CC2(CCN(c3ncnnc3Oc3ccc(F)cc3-c3cncc(C#N)c3C3CC3)C2)C1 (stereo partly drawn) [Compound 143]
IC50 [1]: 0.1 nM | IC50 (MOLM14 cells; Homo sapiens, MOLM-14, 192 h): 27 nM | IC50 (KO-52 cells; Homo sapiens, 192 h): 1530 nM

CC(C)[C@@H]([C@H]1C[C@@H](N2CC[C@H](C(=O)N(C)C)C2)C1)N1CC2(CCN(c3ncnnc3Oc3ccc(F)cc3-c3cnncc3C3CC3)C2)C1 (single isomer, unassigned) [Compound 116]
IC50 [1]: 0.1 nM | IC50 (MOLM14 cells; Homo sapiens, MOLM-14, 192 h): 7 nM | IC50 (KO-52 cells; Homo sapiens, 192 h): 8890 nM

CC(C)[C@H]([C@H]1C[C@H](N2CCC(F)C(O)C2)C1)N1CC2(CCN(c3ncnnc3Oc3ccc(F)cc3-c3cncnc3C3CC3)C2)C1 (single isomer, unassigned) [Compound 31]
IC50 [1]: 0.3 nM | IC50 (MOLM14 cells; Homo sapiens, MOLM-14, 192 h): 7 nM | IC50 (KO-52 cells; Homo sapiens, 192 h): 2410 nM

CC(C)[C@@H]([C@H]1C[C@H](N(C)C)C1)N1CC2(CCN(c3ncnnc3Oc3ccc(F)cc3-c3cccnc3C3CC3)C2)C1 (single isomer, unassigned) [Compound 91]
IC50 [1]: 0.1 nM | IC50 (MOLM14 cells; Homo sapiens, MOLM-14, 192 h): 26 nM | IC50 (KO-52 cells; Homo sapiens, 192 h): 1030 nM

CC(C)C([C@H]1C[C@@H](N2C[C@H]3COC[C@H]3C2)C1)N1CC2(CCN(c3ncnnc3Oc3ccc(F)cc3-c3cncc(C#N)c3C3CC3)C2)C1 (stereo partly drawn) [Compound 142]
IC50 [1]: 0.1 nM | IC50 (MOLM14 cells; Homo sapiens, MOLM-14, 192 h): 7 nM | IC50 (KO-52 cells; Homo sapiens, 192 h): 1350 nM

CC(=O)N1CCN([C@H]2C[C@@H]([C@H](C(C)C)N3CC4(CCN(c5ncnnc5Oc5ccc(F)cc5-c5ncc(C#N)cc5C5CC5)C4)C3)C2)CC1 (single isomer, unassigned) [Compound 96]
IC50 [1]: 153 nM | IC50 (MOLM14 cells; Homo sapiens, MOLM-14, 192 h): > 940 nM | IC50 (KO-52 cells; Homo sapiens, 192 h): > 15000 nM

— US20240417405A1, “Substituted Spiro Derivatives” (Janssen Pharmaceutica NV, priority 2021, published 2024)
